One assay deals with GmNAP1 protein. Nature of the assay: isothermal titration calorimetry, binding of GmNAP1 to AMP/ADP/ATP/cAMP. Also noted: species or system soybean. To be noted: ITC, GmNAP1 expressed in Escherichia coli and purified. An excerpt:
(§1) Utilize the prokaryotic expression system of Escherichia coli to express and purify GmNAS1 and GmNAP1 proteins; and then utilize isothermal titration calorimetry to detect the binding ability of GmNAS1/GmNAP1 to AMP, ADP, ATP and cAMP.
(Isothermal titration calorimetry measures the heat released or taken up as one component is titrated into another.)

Assay [1] deals with GmNAS1 protein lacking any one CBS functional domain. Nature of the assay: isothermal titration calorimetry, GmNAS1 protein lacking a CBS functional domain, binding to AMP. Also noted: species or system soybean. To be noted: ITC.
From the text: as §1

In assay [2] the test system is interaction between GmNAS1 and GmNFYC10a. The assay is described as follows: pull-down of GmNAS1 and GmNFYC10a interaction. The assay is classed as binding, soybean.
A further assay relates to GmNFYC10a-GFP. Nature of the assay: GmNFYC10a-GFP fluorescence localization in sections of mature root nodules. Conditions: nodule sections treated for 2 hours, 25 days after inoculation with Rhizobia. The assay is classed as cell-based, soybean. An excerpt: This application also uses co-immunoprecipitation coupled mass spectrometry analysis technology to search for candidate proteins that bind to GmNAP1. In the mass spectrometry results, a transcription factor GmNFYC10a is discovered. […] In order to verify this speculation, we first obtains GmNFYC10a-GFP transgenic hairy roots, and carrying out vibration sectioning of mature root nodules 25 days after inoculation with Rhizobia. […] (FIG. 14).

Another assay concerns GmNAS1 protein. The assay is described as follows: isothermal titration calorimetry, binding of GmNAS1 to AMP/ADP/ATP/cAMP. Also on record: species or system soybean. To be noted: ITC.
From the text: as §1

For assay [3], the system named is soybean root nodule cells. Nature of the assay: GmNFYC10a nuclear protein level and glycolysis gene expression in root nodules before and after sucrose treatment. Conditions: after sucrose treatment. The assay is classed as in vivo.
In the next assay the test system is soybean root nodules. The assay is described as follows: nodule nitrogenase activity after sucrose treatment of plants inoculated with USDA110. The assay is classed as in vivo. To be noted: wild-type W82, 3% (w/v) sucrose solution for three days. The procedure: Design editing site identification primers based on the target sequences of sgRNA on GmNAS1 and GmNAP1, amplify the corresponding fragments and send them for sequencing. The sequencing results are analyzed and four function loss mutants of cr-nas1, cr-nap1, cr-nas1nap1-1 and cr-nas1nap1-2 are obtained. The nodule number, nodule weight and nodule nitrogenase activity on the 25th day after the mutant plants are inoculated with Rhizobia USDA110 are measured.
By utilizing gene editing technology, we obtain the functional knockout mutant cr-nas1 of GmNAS1, the functional knockout mutant cr-nap1 of GmNAP1, and the double knockout mutants cr-nas1nap1-1 and cr-nas1nap1-2 of GmNAS1 and GmNAP1. The root nodules of these four soybean mutants are phenotypically determined 25 days after inoculation with USDA110.

Take `Nc1ncnc2c1ncn2[C@@H]1O[C@H](COP(=O)(O)OP(=O)(O)O)[C@@H](O)[C@H]1O` [ADP]: the “binding to GmNAP1” value with GmNAP1 protein is “does not bind”.
In the case of `Nc1ncnc2c1ncn2[C@@H]1O[C@H](COP(=O)(O)O)[C@@H](O)[C@H]1O` [AMP], the “binding to GmNAS1 protein lacking any one CBS functional domain” value in assay [1] is “not capable of binding”. Moreover, the “effect on interaction between GmNAS1 and GmNFYC10a” value in assay [2] is recorded as “significantly inhibit”. Further, the “GmNFYC10a-GFP fluorescence in the nucleus” value in the assay on GmNFYC10a-GFP is given as “increased significantly”. In the assay on GmNAP1 protein, the “binding to GmNAP1” value is given as “does not bind”.
Consider `Nc1ncnc2c1ncn2[C@@H]1O[C@H](COP(=O)(O)OP(=O)(O)OP(=O)(O)O)[C@@H](O)[C@H]1O` [ATP], for which the “binding to GmNAP1” value in the assay with GmNAP1 protein is “does not bind”. In addition, in the assay on GmNAS1 protein, the “binding to GmNAS1” value was “does not bind”.
As for `CC[C@H]1/C=C/C=C/C[C@@H](C)[C@H](O)[C@@](C)(O)C(=O)[C@@H](C)[C@H](O)[C@@H](C)C(=O)[C@@H](C)[C@H](O)[C@@H](C)/C=C/C(=O)O[C@@H]2[C@H](C)[C@H](CC1)O[C@]1(CC[C@H](C)[C@H](C[C@@H](C)O)O1)[C@H]2C` [oligomycin], in the assay on GmNFYC10a-GFP, the “GmNFYC10a-GFP fluorescence in the nucleus” value is on record as “increased significantly”.
As to `OC[C@H]1O[C@@](CO)(O[C@H]2O[C@H](CO)[C@@H](O)[C@H](O)[C@H]2O)[C@@H](O)[C@@H]1O` [sucrose], the “protein content of GmNFYC10a in the nucleus” value in assay [3] (nuclei of soybean root nodule cells) was “decreases significantly”. Moreover, the “expression of glycolysis-related genes” value in assay [3] (root nodules) was “significantly down-regulated”. Besides, in the assay on soybean root nodules, the “nitrogenase activity of wild-type plants vs plants without sucrose” value is recorded as “significantly higher”.

The values above are taken from patent US20250101448A1, “Protein, Gene and Their Vectors and Applications that Control Symbiotic Nitrogen Fixation Efficiency of Soybeans” (priority 2022, published 2025).
